Experimental data as given in ChEMBL document CHEMBL1144127, “Montadial A, a cytotoxic metabolite from Bondarzewia montana” (J Nat Prod, 1999).
Active and inactive are the calls of the source.

Key:
[1] = tested on: HL-60; assay: Cytotoxicity against human HL-60 cells at 5 ug/mL; assay type: functional, cell-based
[2] = tested on: L1210; assay: Cytotoxicity against mouse L1210 cells at 10 ug/mL; assay type: functional, cell-based
[3] = tested on: Setaria italica; assay: Phytotoxicity against Setaria italica at 50 ug/disk; assay type: functional, organism-based

Measured: Activity

C/C(C=O)=C\Cc1cc(C=O)cc(O)c1O
active: [1] | [2] | [3]
